Patent US20260007681A1, “INDOLE DERIVATIVES AS ESTROGEN RECEPTOR DEGRADERS” (REGENTS OF THE UNIVERSITY OF MICHIGAN, priority 2022, published 2026)

Biological target: ER (Homo sapiens (Human), UniProt P03372)
Assay: Western blot analysis (Compounds B1-B278)
Format: cell-based
Details: ER degradation by traditional Western blot; DC50 classes
Summary of the method: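 Relative target-protein levels come from densitometry of immunoblots, normalized to GAPDH. Lysates from treated cells were prepared in RIPA buffer (pH 7.6) containing protease inhibitors, and equal protein amounts, checked by BCA, were separated on 10% gels and blotted onto PVDF.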

Chain of ER (P03372 whole entry): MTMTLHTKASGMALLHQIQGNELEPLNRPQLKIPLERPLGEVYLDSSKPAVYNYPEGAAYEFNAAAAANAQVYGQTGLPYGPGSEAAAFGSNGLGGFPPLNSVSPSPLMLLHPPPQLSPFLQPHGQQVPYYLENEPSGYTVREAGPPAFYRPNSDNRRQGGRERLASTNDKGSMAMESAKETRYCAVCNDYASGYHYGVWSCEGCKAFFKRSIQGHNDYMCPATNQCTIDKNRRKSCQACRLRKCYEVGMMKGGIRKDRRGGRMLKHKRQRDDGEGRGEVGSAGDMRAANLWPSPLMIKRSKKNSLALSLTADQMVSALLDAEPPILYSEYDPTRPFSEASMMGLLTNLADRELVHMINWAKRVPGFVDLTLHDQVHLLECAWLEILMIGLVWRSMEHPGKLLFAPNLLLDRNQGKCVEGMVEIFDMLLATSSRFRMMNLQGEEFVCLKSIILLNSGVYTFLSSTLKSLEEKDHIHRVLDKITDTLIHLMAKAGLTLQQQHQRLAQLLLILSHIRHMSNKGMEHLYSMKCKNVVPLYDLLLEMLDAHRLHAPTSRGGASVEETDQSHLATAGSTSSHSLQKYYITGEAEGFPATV

Traditional Western Degradation Potency, B (“B”: 10-100 nM):
C[C@@H]1Cc2c([nH]c3ccccc23)[C@@H](c2cnc(N3CCC(CN4CCC(N5Cc6cc7c(cc6C5)C(=O)N(C5CCC(=O)NC5=O)C7=O)CC4)CC3)nc2)N1CC(F)F (stereo partly drawn) [Compound B223, 6-(1-((1-(5-((1R,3R)-2-(2,2-difluoroethyl)-3-methyl-2,3,4,9-tetrahydro-1H-pyrido[3,4-b]indol-1-yl)pyrimidin-2-yl)piperidin-4-yl)methyl)piperidin-4-yl)-2-(2,6-dioxopiperidin-3-yl)-6,7-dihydropyrrolo[3,4-f]isoindole-1,3(2H,5H)-dione]
C[C@@H]1Cc2c([nH]c3ccccc23)[C@@H](c2ccc(N3CCC4(CC3)CN(C(=O)CN3Cc5cc6c(cc5C3)C(=O)N(C3CCC(=O)NC3=O)C6=O)C4)cc2)N1CC(F)F (stereo partly drawn) [Compound B224, 6-(2-(7-(4-((1R,3R)-2-(2,2-difluoroethyl)-3-methyl-2,3,4,9-tetrahydro-1H-pyrido[3,4-b]indol-1-yl)phenyl)-2,7-diazaspiro[3.5]nonan-2-yl)-2-oxoethyl)-2-(2,6-dioxopiperidin-3-yl)-6,7-dihydropyrrolo[3,4-f]isoindole-1,3(2H,5H)-dione]
C[C@@H]1Cc2c([nH]c3ccccc23)[C@@H](c2ccc(N3CCC(C(=O)N4CCC(N5Cc6cc7c(cc6C5)C(=O)N(C5CCC(=O)NC5=O)C7=O)CC4)CC3)cc2)N1CC(F)F (stereo partly drawn) [Compound B225, 6-(1-(1-(4-((1R,3R)-2-(2,2-difluoroethyl)-3-methyl-2,3,4,9-tetrahydro-1H-pyrido[3,4-b]indol-1-yl)phenyl)piperidine-4-carbonyl)piperidin-4-yl)-2-(2,6-dioxopiperidin-3-yl)-6,7-dihydropyrrolo[3,4-f]isoindole-1,3(2H,5H)-dione]
C[C@@H]1Cc2c([nH]c3ccccc23)[C@@H](c2ccc(N3CCC(CN4CCC(N5Cc6cc7c(cc6C5)C(=O)N(C5CCC(=O)NC5=O)C7=O)CC4)CC3)cc2)N1CC(F)F (stereo partly drawn) [Compound B226, 6-(1-((1-(4-((1R,3R)-2-(2,2-difluoroethyl)-3-methyl-2,3,4,9-tetrahydro-1H-pyrido[3,4-b]indol-1-yl)phenyl)piperidin-4-yl)methyl)piperidin-4-yl)-2-(2,6-dioxopiperidin-3-yl)-6,7-dihydropyrrolo[3,4-f]isoindole-1,3(2H,5H)-dione]
C[C@@H]1Cc2c([nH]c3ccccc23)[C@@H](c2ccc(N3CCC4(CCN(C(=O)CN5Cc6cc7c(cc6C5)C(=O)N(C5CCC(=O)NC5=O)C7=O)CC4)CC3)cc2)N1CC(F)F (stereo partly drawn) [Compound B227, 6-(2-(9-(4-((1R,3R)-2-(2,2-difluoroethyl)-3-methyl-2,3,4,9-tetrahydro-1H-pyrido[3,4-b]indol-1-yl)phenyl)-3,9-diazaspiro[5.5]undecan-3-yl)-2-oxoethyl)-2-(2,6-dioxopiperidin-3-yl)-6,7-dihydropyrrolo[3,4-f]isoindole-1,3(2H,5H)-dione]
C[C@@H]1Cc2c([nH]c3ccccc23)[C@@H](c2ccc(N3CCC4(CCN(C(=O)CN5Cc6cc7c(cc6C5)C(=O)N(C5CCC(=O)NC5=O)C7=O)CC4)CC3)nc2)N1CC(F)F (stereo partly drawn) [Compound B229, 6-(2-(9-(5-((1R,3R)-2-(2,2-difluoroethyl)-3-methyl-2,3,4,9-tetrahydro-1H-pyrido[3,4-b]indol-1-yl)pyridin-2-yl)-3,9-diazaspiro[5.5]undecan-3-yl)-2-oxoethyl)-2-(2,6-dioxopiperidin-3-yl)-6,7-dihydropyrrolo[3,4-f]isoindole-1,3(2H,5H)-dione]
C[C@@H]1Cc2c([nH]c3ccccc23)[C@@H](c2ccc(N3CCC4(CCN(C(=O)CN5Cc6cc7c(cc6C5)C(=O)N(C5CCC(=O)NC5=O)C7=O)CC4)CC3)cc2F)N1CC(F)F (stereo partly drawn) [Compound B231, 6-(2-(9-(4-((1R,3R)-2-(2,2-difluoroethyl)-3-methyl-2,3,4,9-tetrahydro-1H-pyrido[3,4-b]indol-1-yl)-3-fluorophenyl)-3,9-diazaspiro[5.5]undecan-3-yl)-2-oxoethyl)-2-(2,6-dioxopiperidin-3-yl)-6,7-dihydropyrrolo[3,4-f]isoindole-1,3(2H,5H)-dione]
C[C@@H]1Cc2c([nH]c3ccccc23)[C@@H](c2ccc(C3CCC(C(=O)N4CCC(N5Cc6cc7c(cc6C5)C(=O)N(C5CCC(=O)NC5=O)C7=O)CC4)CC3)cc2F)N1CC(F)F (stereo partly drawn) [Compound B233, 6-(1-(4-(4-((1R,3R)-2-(2,2-difluoroethyl)-3-methyl-2,3,4,9-tetrahydro-1H-pyrido[3,4-b]indol-1-yl)-3-fluorophenyl)cyclohexane-1-carbonyl)piperidin-4-yl)-2-(2,6-dioxopiperidin-3-yl)-6,7-dihydropyrrolo[3,4-f]isoindole-1,3(2H,5H)-dione]

Traditional Western Degradation Potency, A (“A”: <10 nM):
C[C@@H]1Cc2c([nH]c3ccccc23)[C@@H](c2cnc(N3CCC(C(=O)N4CCC(N5Cc6cc7c(cc6C5)C(=O)N(C5CCC(=O)NC5=O)C7=O)CC4)CC3)nc2)N1CC(F)(F)F (stereo partly drawn) [Compound B219, 2-(2,6-dioxopiperidin-3-yl)-6-(1-(1-(5-((1R,3R)-3-methyl-2-(2,2,2-trifluoroethyl)-2,3,4,9-tetrahydro-1H-pyrido[3,4-b]indol-1-yl)pyrimidin-2-yl)piperidine-4-carbonyl)piperidin-4-yl)-6,7-dihydropyrrolo[3,4-f]isoindole-1,3(2H,5H)-dione]
C[C@@H]1Cc2c([nH]c3ccccc23)[C@@H](c2cnc(N3CCC4(CCN(C(=O)CN5Cc6cc7c(cc6C5)C(=O)N(C5CCC(=O)NC5=O)C7=O)CC4)CC3)nc2)N1CC(F)F (stereo partly drawn) [Compound B220, 6-(2-(9-(5-((1R,3R)-2-(2,2-difluoroethyl)-3-methyl-2,3,4,9-tetrahydro-1H-pyrido[3,4-b]indol-1-yl)pyrimidin-2-yl)-3,9-diazaspiro[5.5]undecan-3-yl)-2-oxoethyl)-2-(2,6-dioxopiperidin-3-yl)-6,7-dihydropyrrolo[3,4-f]isoindole-1,3(2H,5H)-dione]
C[C@@H]1Cc2c([nH]c3ccccc23)[C@@H](c2cnc(N3CCC4(CC3)CN(C(=O)CN3Cc5cc6c(cc5C3)C(=O)N(C3CCC(=O)NC3=O)C6=O)C4)nc2)N1CC(F)F (stereo partly drawn) [Compound B221, 6-(2-(7-(5-((1R,3R)-2-(2,2-difluoroethyl)-3-methyl-2,3,4,9-tetrahydro-1H-pyrido[3,4-b]indol-1-yl)pyrimidin-2-yl)-2,7-diazaspiro[3.5]nonan-2-yl)-2-oxoethyl)-2-(2,6-dioxopiperidin-3-yl)-6,7-dihydropyrrolo[3,4-f]isoindole-1,3(2H,5H)-dione]
C[C@@H]1Cc2c([nH]c3ccccc23)[C@@H](c2cnc(N3CCC(C(=O)N4CCC(N5Cc6cc7c(cc6C5)C(=O)N(C5CCC(=O)NC5=O)C7=O)CC4)CC3)nc2)N1CC(F)F (stereo partly drawn) [Compound B222, 6-(1-(1-(5-((1R,3R)-2-(2,2-difluoroethyl)-3-methyl-2,3,4,9-tetrahydro-1H-pyrido[3,4-b]indol-1-yl)pyrimidin-2-yl)piperidine-4-carbonyl)piperidin-4-yl)-2-(2,6-dioxopiperidin-3-yl)-6,7-dihydropyrrolo[3,4-f]isoindole-1,3(2H,5H)-dione]
C[C@@H]1Cc2c([nH]c3ccccc23)[C@@H](c2ccc(N3CCC(C(=O)N4CCC(N5Cc6cc7c(cc6C5)C(=O)N(C5CCC(=O)NC5=O)C7=O)CC4)CC3)cc2F)N1CC(F)F (stereo partly drawn) [Compound B232, 6-(1-(1-(4-((1R,3R)-2-(2,2-difluoroethyl)-3-methyl-2,3,4,9-tetrahydro-1H-pyrido[3,4-b]indol-1-yl)-3-fluorophenyl)piperidine-4-carbonyl)piperidin-4-yl)-2-(2,6-dioxopiperidin-3-yl)-6,7-dihydropyrrolo[3,4-f]isoindole-1,3(2H,5H)-dione]

Traditional Western Degradation Potency, C (“C”: >100 nM):
C[C@@H]1Cc2c([nH]c3ccccc23)[C@@H](c2ccc(N3CCC4(CCN(C(=O)CN5Cc6cc7c(cc6C5)C(=O)N(C5CCC(=O)NC5=O)C7=O)CC4)CC3)cn2)N1CC(F)F (stereo partly drawn) [Compound B228, 6-(2-(9-(6-((1S,3R)-2-(2,2-difluoroethyl)-3-methyl-2,3,4,9-tetrahydro-1H-pyrido[3,4-b]indol-1-yl)pyridin-3-yl)-3,9-diazaspiro[5.5]undecan-3-yl)-2-oxoethyl)-2-(2,6-dioxopiperidin-3-yl)-6,7-dihydropyrrolo[3,4-f]isoindole-1,3(2H,5H)-dione]
C[C@@H]1Cc2c([nH]c3ccccc23)[C@@H](c2ccc(N3CCC4(CCN(CC(=O)N5Cc6cc7c(cc6C5)C(=O)N(C5CCC(=O)NC5=O)C7=O)CC4)CC3)cn2)N1CC(F)F (stereo partly drawn) [Compound B230, 6-(2-(9-(6-((1S,3R)-2-(2,2-difluoroethyl)-3-methyl-2,3,4,9-tetrahydro-1H-pyrido[3,4-b]indol-1-yl)pyridin-3-yl)-3,9-diazaspiro[5.5]undecan-3-yl)acetyl)-2-(2,6-dioxopiperidin-3-yl)-6,7-dihydropyrrolo[3,4-f]isoindole-1,3(2H,5H)-dione]
C[C@@H]1Cc2c([nH]c3ccccc23)[C@@H](c2ccc(C3CCC(C(=O)N4CCC(N5Cc6cc7c(cc6C5)C(=O)N(C5CCC(=O)NC5=O)C7=O)CC4)CC3)cn2)N1CC(F)F (stereo partly drawn) [Compound B234, 6-(1-(4-(6-((1S,3R)-2-(2,2-difluoroethyl)-3-methyl-2,3,4,9-tetrahydro-1H-pyrido[3,4-b]indol-1-yl)pyridin-3-yl)cyclohexane-1-carbonyl)piperidin-4-yl)-2-(2,6-dioxopiperidin-3-yl)-6,7-dihydropyrrolo[3,4-f]isoindole-1,3(2H,5H)-dione]
